Source: article doi:10.1101/2021.01.13.426390v3 (biorxiv, 2021)

Molecular target: T1, AGR3 (Homo sapiens, UniProt Q8TD06)
T1 sequence (Q8TD06 22-166): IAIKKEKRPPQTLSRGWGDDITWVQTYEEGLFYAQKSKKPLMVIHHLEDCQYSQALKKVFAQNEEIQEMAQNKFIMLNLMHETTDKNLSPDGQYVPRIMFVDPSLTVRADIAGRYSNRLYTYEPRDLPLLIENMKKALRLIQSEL
Test: biotin probe labelling, non-reducing SDS-PAGE, streptavidin-AP blot
Format: binding
Conditions: covalent; labelled compound; 30 uM probe, pH 7.4, 37 C

## O=C(CCCC[C@@H]1SC[C@@H]2NC(=O)N[C@@H]21)NCC(=O)N1C[C@@H]2CS(=O)(=O)SC[C@H]2C1 (racemic) [Biotin-GlyPyrDTDO]
  biotin probe labelling, non-reducing SDS-PAGE, streptavidin-AP blot: it was also labeled by Biotin-GlyPyrDTDO
